From publication PMC4176827 (Molecular and biochemical parasitology, 2014)

How the values were obtained:
CpDHS [1] = biological target: T1, CpDHS (Cryptosporidium parvum, UniProt A3FQA5); assay: radiometric deoxyhypusine synthase assay; format: biochemical; conditions: read-out: % inhibition at 1 μM
T1 sequence (A3FQA5 1-362): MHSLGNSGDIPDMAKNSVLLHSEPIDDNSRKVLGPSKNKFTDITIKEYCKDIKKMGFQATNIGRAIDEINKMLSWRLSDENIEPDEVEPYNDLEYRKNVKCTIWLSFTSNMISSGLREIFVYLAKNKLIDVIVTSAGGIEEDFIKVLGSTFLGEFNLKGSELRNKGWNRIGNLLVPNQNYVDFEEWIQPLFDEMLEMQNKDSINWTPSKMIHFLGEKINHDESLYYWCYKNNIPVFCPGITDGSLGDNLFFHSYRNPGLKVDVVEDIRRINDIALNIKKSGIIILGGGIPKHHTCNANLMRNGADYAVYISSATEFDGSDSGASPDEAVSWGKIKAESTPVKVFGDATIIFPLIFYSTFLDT

CpDHS [2] = biological target: T1, CpDHS; assay: fluorescence of enzyme-bound NADH; format: biochemical; conditions: 100 µM spermidine, no eIF5A, 0.2 M glycine buffer pH 9.2

N=C(N)NCCCCCCCN [GC7, N^1-guanyl-1,7-diaminoheptane]
inhibition at 1 µM (CpDHS [1]): > 90%

NC(=O)c1ccc[n+]([C@@H]2O[C@H](COP(=O)(O)OP(=O)(O)OC[C@H]3O[C@@H](n4cnc5c(N)ncnc54)[C@H](O)[C@@H]3O)[C@@H](O)[C@H]2O)c1 [NAD^+]
fluorescence of enzyme-bound NADH (excitation 340 nm, emission 441 nm) (CpDHS [2]): both spermidine and NAD^+ are required for NADH fluorescence
